Measurements: ChEMBL document CHEMBL1137154, “Phenylethanolamine N-methyltransferase inhibition: re-evaluation of kinetic data” (Bioorg Med Chem Lett, 2004)
pKi: −log10 of the molar value.

Molecular target: T1, Phenylethanolamine N-methyltransferase (Homo sapiens, UniProt P11086)
T1 sequence (P11086 whole entry): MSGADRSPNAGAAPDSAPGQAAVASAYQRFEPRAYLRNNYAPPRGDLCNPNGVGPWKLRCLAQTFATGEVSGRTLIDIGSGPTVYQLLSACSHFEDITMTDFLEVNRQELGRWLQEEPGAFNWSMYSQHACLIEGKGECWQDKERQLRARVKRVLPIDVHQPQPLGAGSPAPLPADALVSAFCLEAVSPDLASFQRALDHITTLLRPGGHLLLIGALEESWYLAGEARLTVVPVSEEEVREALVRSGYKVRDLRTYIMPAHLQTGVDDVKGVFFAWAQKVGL
Experiment: Inhibitory binding affinity for phenylethanolamine N-methyl-transferase (PNMT)

Work on `CC(N)c1cccc(Cl)c1Cl` (stereo unspecified) yielded a pKi of 7.05.
